Measurements: US20240376052A1, “N-SUBSTITUTED INDOLE DERIVATIVES AS SEROTONERGIC AGENTS USEFUL FOR THE TREATMENT OF DISORDERS RELATED THERETO” (Mindset Pharma Inc., priority 2021, published 2024)
Like-named read-outs stand apart in the source and are kept apart here.

Experiments:
human 5-HT2A receptor = human 5-HT2A receptor (Homo sapiens (Human), UniProt P28223); assay: Human 5-HT2A radioligand binding assay ([3H]-ketanserin)
[1] = Liver microsomes stability, human; conditions: for Remaining Percentage (%): Human
Description: (§1) The objective of this study was to estimate in vitro metabolic stability of representative compounds of the application in pooled human and male mouse liver microsomes. The concentrations of parent compounds in reaction systems were evaluated by LC-MS/MS for estimating the stability in pooled human and male mouse liver microsomes. The in vitro intrinsic clearances of test compounds were determined as well.
(§2) A master solution in the “Incubation Plate” containing phosphate buffer, ultra-pure H2O, MgCl2 solution and liver microsomes was made according to Table 3. The mixture was pre-warmed at 37° C. water bath for 5 minutes.
(§3) 40 μL of 10 mM NADPH solution was added to each well. The final concentration of NADPH was 1 mM. The negative control samples were prepared by replacing NADPH with 40 μL of ultra-pure H2O. Samples were prepared in duplicate. Negative controls were prepared in singlet.
(§4) The reaction was started with the addition of 4 μL of 200 μM test compounds or control compounds to each master solution to get the final concentration of 2 μM. This study was performed in duplicate.
(§5) Aliquots of 50 μL were taken from the reaction solution at 0, 15, 30, 45 and 60 minutes. The reaction solutions were stopped by the addition of 4 volumes of cold methanol with IS (100 nM alprazolam, 200 nM imipramine, 200 nM labetalol and 2 μM ketoprofen). Samples were centrifuged at 3,220 g for 40 minutes. Aliquot of 90 μL of the supernatant was mixed with 90 μL of ultra-pure H2O and then was used for LC-MS/MS analysis.
(§6) LC/MS analysis was performed for all samples from this study using a Shimadzu liquid chromatograph separation system equipped with degasser DGU-20A5R; solvent delivery unit LC-30AD; system controller SIL-30AC; column oven CTO-30A; CTC Analytics HTC PAL System. Mass spectrometric analysis was performed using an Triple Quad™ 5500 instrument.
(§7) All calculations were carried out using Microsoft Excel. Peak area ratios of test compound to internal standard (listed in the below table) were determined from extracted ion chromatograms.
(§8) All calculations were carried out using Microsoft Excel. Peak areas were determined from extracted ion chromatograms. The slope value, k, was determined by linear regression of the natural logarithm of the remaining percentage of the parent drug vs. incubation time curve.
(§9) The in vitro half-life (in vitro t1/2) was determined from the slope value:
(§10) Conversion of the in vitro t1/2(min) into the in vitro intrinsic clearance (in vitro CLint, in μL/min/mg proteins) was done using the following equation (mean of duplicate determinations): […]

[2] = Liver microsomes stability, rat; conditions: for Remaining Percentage (%): Rat
Description: as §1, §2, §3, §4, §5, §6, §7, §8, §9, §10

[3] = Liver microsomes stability, mouse; conditions: for Remaining Percentage (%): Mouse
Description: as §1, §2, §3, §4, §5, §6, §7, §8, §9, §10

[4] = Liver microsomes stability, dog; conditions: for Remaining Percentage (%): Dog
[5] = [3H]-ketanserin competition, read-out: h5-HT2A IC50

With `CCCCC/C=C\C/C=C\CCCCCCCC(=O)n1cc(C2CCN(C)C2)c2ccccc21` (racemic) [Compound I-12, (9Z,12Z)-1-(3-(1-Methylpyrrolidin-3-yl)-1H-indol-1-yl)octadeca-9,12-dien-1-one] the IC50 (human 5-HT2A receptor; [5]) was 2000 to 5000 nM.
`CCCCC/C=C\C/C=C\CCCCCCCC(=O)n1cc(C2CCN(C)C2)c2cc(OC)ccc21` (racemic) [Compound I-13, (9Z,12Z)-1-(5-Methoxy-3-(1-methylpyrrolidin-3-yl)-1H-indol-1-yl)octadeca-9,12-dien-1-one] gave an IC50 (human 5-HT2A receptor; [5]) of 2000 to 5000 nM.
With `[2H]C([2H])([2H])Oc1ccc2c(c1)c(C([2H])([2H])C([2H])([2H])N(C([2H])([2H])[2H])C([2H])([2H])[2H])cn2C(=O)CCCCCCC/C=C\C/C=C\CCCCC` [Compound I-4, (9Z,12Z)-1-(3-(2-(Bis(methyl-d3)amino)ethyl-1,1,2,2-d4)-5-(methoxy-d3)-1H-indol-1-yl)octadeca-9,12-dien-1-one] the IC50 (human 5-HT2A receptor) was < 2000 nM.
In the case of `CCCCC/C=C\C/C=C\CCCCCCCC(=O)n1cc(C[C@H]2CCCN2C)c2ccccc21` [Compound I-5, (9Z,12Z)-1-(3-(((R)-1-Methylpyrrolidin-2-yl)methyl)-1H-indol-1-yl)octadeca-9,12-dien-1-one], the IC50 (human 5-HT2A receptor) is reported as < 2000 nM, the “Predicted hepatic CL” value ([1]; Human liver microsomes) is reported as 6.42 mL/min/kg and the “Remaining Percentage (%)” value ([1]; With NADPH, 0 min) is reported as 100.00%. The “Remaining Percentage (%)” value ([1]; With NADPH, 30 min) was 86.52%, the “Remaining Percentage (%)” value ([1]; With NADPH, 60 min) was 80.05% and the “Remaining Percentage (%)” value ([1]; Without NADPH, 0 min) was 100.00%. The “Remaining Percentage (%)” value ([1]; Without NADPH, 30 min) was 85.69%, the “Remaining Percentage (%)” value ([1]; Without NADPH, 60 min) was 80.25% and the CLint scaled at 2 μM ([1]; human, microsomes) was 9.3 mL/min/kg. For the same compound, the half-life at 2 μM ([1]; human, microsomes) was 3.11 h, the microsomal CLint at 2 μM ([1]; human, microsomes) was 7.42 µL/min/mg and the “Predicted hepatic CL” value ([2]; Rat liver microsomes) was 24.83 mL/min/kg. For the same compound, the “Remaining Percentage (%)” value ([2]; With NADPH, 0 min) was 100.00%, the “Remaining Percentage (%)” value ([2]; With NADPH, 30 min) was 69.74% and the “Remaining Percentage (%)” value ([2]; With NADPH, 60 min) was 46.98%. The “Remaining Percentage (%)” value ([2]; Without NADPH, 0 min) was 100.00%, the “Remaining Percentage (%)” value ([2]; Without NADPH, 30 min) was 97.35% and the “Remaining Percentage (%)” value ([2]; Without NADPH, 60 min) was 95.87%. The CLint scaled at 2 μM ([2]; rat, microsomes) was 45.1 mL/min/kg, the half-life at 2 μM ([2]; rat, microsomes) was 0.917 h and the microsomal CLint at 2 μM ([2]; rat, microsomes) was 25.2 µL/min/mg. For the same compound, the “Predicted hepatic CL” value ([3]; Mouse liver microsomes) was 41.60 mL/min/kg, the “Remaining Percentage (%)” value ([3]; With NADPH, 0 min) was 100.00% and the “Remaining Percentage (%)” value ([3]; With NADPH, 30 min) was 74.79%. The “Remaining Percentage (%)” value ([3]; With NADPH, 60 min) was 58.84%, the “Remaining Percentage (%)” value ([3]; Without NADPH, 0 min) was 100.00% and the “Remaining Percentage (%)” value ([3]; Without NADPH, 30 min) was 80.19%. For the same compound, the “Remaining Percentage (%)” value ([3]; Without NADPH, 60 min) was 90.42%, the CLint scaled at 2 μM ([3]; male, mouse, microsomes) was 77.3 mL/min/kg and the half-life at 2 μM ([3]; male, mouse, microsomes) was 1.31 h. The microsomal CLint at 2 μM ([3]; male, mouse, microsomes) was 17.7 µL/min/mg, the “Predicted hepatic CL” value ([4]; Dog liver microsomes) was 21.51 mL/min/kg and the “Remaining Percentage (%)” value ([4]; With NADPH, 0 min) was 100.00%. The “Remaining Percentage (%)” value ([4]; With NADPH, 30 min) was 65.44%, the “Remaining Percentage (%)” value ([4]; With NADPH, 60 min) was 42.66% and the “Remaining Percentage (%)” value ([4]; Without NADPH, 0 min) was 100.00%. For the same compound, the “Remaining Percentage (%)” value ([4]; Without NADPH, 30 min) was 87.66%, the “Remaining Percentage (%)” value ([4]; Without NADPH, 60 min) was 90.58% and the CLint scaled at 2 μM ([4]; dog, microsomes) was 70.8 mL/min/kg. For the same compound, the half-life at 2 μM ([4]; dog, microsomes) was 0.814 h and the microsomal CLint at 2 μM ([4]; dog, microsomes) was 28.4 µL/min/mg.
